This assay concerns the target TRKA (Homo sapiens (Human), UniProt P04629). In words: Isolated TRK enzyme assay (HTRF KinEASE-TK), TRKA. Conditions: read-out: Trka enzyme (IC50). In kind it is biochemical. (In TR-FRET formats the signal depends on donor and acceptor labels being close together.)
Sequence of TRKA (P04629 441-796): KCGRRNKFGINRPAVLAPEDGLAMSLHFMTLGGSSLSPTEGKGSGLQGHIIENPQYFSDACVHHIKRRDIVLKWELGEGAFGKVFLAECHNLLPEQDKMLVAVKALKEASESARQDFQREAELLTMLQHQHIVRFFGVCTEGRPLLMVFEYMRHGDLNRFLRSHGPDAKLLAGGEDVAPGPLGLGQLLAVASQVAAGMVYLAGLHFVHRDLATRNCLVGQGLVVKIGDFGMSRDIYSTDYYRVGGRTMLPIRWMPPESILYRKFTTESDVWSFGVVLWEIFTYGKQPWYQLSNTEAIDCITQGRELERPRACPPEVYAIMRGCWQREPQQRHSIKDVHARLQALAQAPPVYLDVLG
Usually IC50 stands for the midpoint of a concentration-inhibition curve. As for `CC(C)(CO)n1cc(C(=O)c2cncc(NC(=O)Cn3cc(C4CC4)cn3)c2)c2cnc(N)nc21` [Example 576, N-{5-[2-Amino-7-(2-hydroxy-1,1-dimethyl-ethyl)-7H-pyrrolo[2,3-d]pyrimidine-5-carbonyl]-pyridin-3-yl}-2-(4-cyclopropyl-pyrazol-1-yl)-acetamide], the IC50 is 296 nM. In the case of `CC(C)(C)n1cc(C(=O)c2cncc(NC(=O)Cn3cc(C4CC4)cn3)c2)c2cnc(N)nc21` [Example 577, N-[5-(2-Amino-7-tert-butyl-7H-pyrrolo[2,3-d]pyrimidine-5-carbonyl)-pyridin-3-yl]-2-(4-cyclopropyl-pyrazol-1-yl)-acetamide] it was 1.9 nM; in that of `Nc1ncc2c(C(=O)c3cncc(NC(=O)Cc4ccc(F)cn4)c3)cn(C34CC(C3)C4)c2n1` [Example 578, N-[5-(2-Amino-7-bicyclo[1.1.1]pent-1-yl-7H-pyrrolo[2,3-d]pyrimidine-5-carbonyl)-pyridin-3-yl]-2-(5-fluoro-pyridin-2-yl)-acetamide], 6.07 nM; in that of `CS(=O)(=O)c1cccc(CC(=O)Nc2cncc(C(=O)c3cn(C45CC(C4)C5)c4nc(N)ncc34)c2)c1` [Example 579, N-[5-(2-Amino-7-bicyclo[1.1.1]pent-1-yl-7H-pyrrolo[2,3-d]pyrimidine-5-carbonyl)-pyridin-3-yl]-2-(3-methanesulfonyl-phenyl)-acetamide], 8.11 nM. To `Nc1ncc2c(C(=O)c3cncc(NC(=O)Cn4ccc(C(F)(F)F)n4)c3)cn(C34CC(C3)C4)c2n1` [Example 580, N-[5-(2-Amino-7-bicyclo[1.1.1]pent-1-yl-7H-pyrrolo[2,3-d]pyrimidine-5-carbonyl)-pyridin-3-yl]-2-(3-trifluoromethyl-pyrazol-1-yl)-acetamide] belongs 0.825 nM; to `Nc1ncc2c(C(=O)c3cncc(NC(=O)Cn4cc(C(F)(F)F)nn4)c3)cn(C34CC(C3)C4)c2n1` [Example 581, N-[5-(2-Amino-7-bicyclo[1.1.1]pent-1-yl-7H-pyrrolo[2,3-d]pyrimidine-5-carbonyl)-pyridin-3-yl]-2-(4-trifluoromethyl-[1,2,3]triazol-1-yl)-acetamide], 3.21 nM; to `N#Cc1ccc(CC(=O)Nc2cncc(C(=O)c3cn(C45CC(C4)C5)c4nc(N)ncc34)c2)cc1` [Example 582, N-[5-(2-Amino-7-bicyclo[1.1.1]pent-1-yl-7H-pyrrolo[2,3-d]pyrimidine-5-carbonyl)-pyridin-3-yl]-2-(4-cyano-phenyl)-acetamide], 9.79 nM.

For the compound `Nc1ncc2c(C(=O)c3cncc(NC(=O)Cc4ccc(Cl)cn4)c3)cn(C34CC(C3)C4)c2n1` [Example 583, N-[5-(2-Amino-7-bicyclo[1.1.1]pent-1-yl-7H-pyrrolo[2,3-d]pyrimidine-5-carbonyl)-pyridin-3-yl]-2-(5-chloro-pyridin-2-yl)-acetamide], the IC50 was determined as 0.681 nM.

Consider `CC(C)n1cc(C(=O)c2c[nH]c(=O)c(NC(=O)Cc3ccc(C#N)cc3)c2)c2cncnc21` [Example 584, 2-(4-cyanophenyl)-N-(2-oxo-5-{[7-(propan-2-yl)-7H-pyrrolo[2,3-d]pyrimidin-5-yl]carbonyl}-1,2-dihydropyridin-3-yl)acetamide], for which the IC50 stood at 581 nM. To `CC(C)n1cc(C(=O)c2c[nH]c(=O)c(NC(=O)COc3ccccc3OC(F)(F)F)c2)c2cncnc21` [Example 585, N-(2-oxo-5-{[7-(propan-2-yl)-7H-pyrrolo[2,3-d]pyrimidin-5-yl]carbonyl}-1,2-dihydropyridin-3-yl)-2-[2-(trifluoromethoxy)phenoxy]acetamide] belongs 36.7 nM; to `CC(C)n1cc(C(=O)c2c[nH]c(=O)c(NC(=O)Cc3coc(C4CC4)n3)c2)c2cncnc21` [Example 586, 2-(2-cyclopropyl-1,3-oxazol-4-yl)-N-(2-oxo-5-{[7-(propan-2-yl)-7H-pyrrolo[2,3-d]pyrimidin-5-yl]carbonyl}-1,2-dihydropyridin-3-yl)acetamide], 1000 nM. Regarding `Cc1cc(C(F)(F)F)nn1CC(=O)Nc1cc(C(=O)c2cn(C(C)C)c3ncncc23)c[nH]c1=O` [Example 587, 2-[5-methyl-3-(trifluoromethyl)-1H-pyrazol-1-yl]-N-(2-oxo-5-{[7-(propan-2-yl)-7H-pyrrolo[2,3-d]pyrimidin-5-yl]carbonyl}-1,2-dihydropyridin-3-yl)acetamide], the concentration for half-maximal inhibition (IC50) is 20.5 nM. As for `CC(C)n1cc(C(=O)c2c[nH]c(=O)c(NC(=O)Cc3ccc4cccnc4c3)c2)c2cncnc21` [Example 588, N-(2-oxo-5-{[7-(propan-2-yl)-7H-pyrrolo[2,3-d]pyrimidin-5-yl]carbonyl}-1,2-dihydropyridin-3-yl)-2-(quinolin-7-yl)acetamide], the IC50 came to 334 nM. As for `CC(C)n1cc(C(=O)c2c[nH]c(=O)c(NC(=O)Cc3ccc(Cl)cc3)c2)c2cncnc21` [Example 589, 2-(4-chlorophenyl)-N-(2-oxo-5-{[7-(propan-2-yl)-7H-pyrrolo[2,3-d]pyrimidin-5-yl]carbonyl}-1,2-dihydropyridin-3-yl)acetamide], the concentration for half-maximal inhibition (IC50) amounted to 31.3 nM. In the case of `CC(C)n1cc(C(=O)c2c[nH]c(=O)c(NC(=O)Cc3ccc(Cl)cn3)c2)c2cncnc21` [Example 590, 2-(5-chloropyridin-2-yl)-N-(2-oxo-5-{[7-(propan-2-yl)-7H-pyrrolo[2,3-d]pyrimidin-5-yl]carbonyl}-1,2-dihydropyridin-3-yl)acetamide] it was 71.2 nM. To `CC(C)n1cc(C(=O)c2c[nH]c(=O)c(NC(=O)Cn3cc(C(F)(F)F)nn3)c2)c2cncnc21` [Example 591, N-(2-oxo-5-{[7-(propan-2-yl)-7H-pyrrolo[2,3-d]pyrimidin-5-yl]carbonyl}-1,2-dihydropyridin-3-yl)-2-[4-(trifluoromethyl)-1H-1,2,3-triazol-1-yl]acetamide] belongs 142 nM; to “N-(5-(7-(1,3-dihydroxy-2-methylpropan-2-yl)-7H-pyrrolo[2,3-d]pyrimidine-5-carbonyl)pyridin-3-yl)-2-(3-trifluoromethoxy)phenyl)acetamide [Example 262]”, 32.3 nM.

The values above are taken from patent US8846698B2, “Pyrrolo[2,3-d]pyrimidine tropomysin-related kinase inhibitors” (Pfizer Limited, priority 2011, dated 2014).
